For this test, the system named is CD8F1 mice, subcutaneous mammary adenocarcinoma, T/C%. In words: NCI In Vivo Anticancer Drug Screen. Data for tumor model Mammary Adenocarcinoma CD8F1 (subcutaneous) in CD8F1. The note with it: higher = larger tumour. In outline: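 Compound-treated versus vehicle-treated mice with transplantable tumors; survival or tumor size compared as T/C.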
Setting [1] is: endpoint: median tumor weight change, dose: 125.0 mg/kg/injection, schedule: Q01DX001 (ip), vehicle: saline with Tween-80.
Setting [2] is: endpoint: median tumor weight change, dose: 250.0 mg/kg/injection, schedule: Q01DX001 (ip), vehicle: saline with Tween-80.
[3] abbreviates: endpoint: median tumor weight change, dose: 125.0 mg/kg/injection, schedule: Q01DX001 (ip), vehicle: saline.
The mark [4] stands for this setting: endpoint: median tumor weight (est.), dose: 25.0 mg/kg/injection, schedule: Q07DX005 (ip), vehicle: suspension in saline.
[5] abbreviates: endpoint: median tumor weight (est.), dose: 50.0 mg/kg/injection, schedule: Q07DX005 (ip), vehicle: suspension in saline.
Setting [6] is: endpoint: median tumor weight (est.), dose: 200.0 mg/kg/injection, schedule: Q07DX005 (ip), vehicle: suspension in saline.

In PubChem BioAssay AID220 (DTP/NCI, 2004) one finds T/C data, which are given here for 17 compounds.

Where “and” joins values, the source holds several entries; their conditions need not be identical. Identical values can stand only once. Records with an inconclusive call do not appear.

Consider `O=C1c2c(O)ccc(O)c2C(=O)c2c(NCCNCCO)ccc(NCCNCCO)c21`, for which the T/C (endpoint: median tumor weight (est.), dose: 0.25 mg/kg/injection, schedule: Q07DX005 (ip), vehicle: acid diluted with saline) was 106 % of control; the T/C (endpoint: median tumor weight (est.), dose: 0.5 mg/kg/injection, schedule: Q07DX005 (ip), vehicle: acid diluted with saline) is 93 % of control; the T/C (endpoint: median tumor weight (est.), dose: 0.5 mg/kg/injection, schedule: Q07DX005 (ip), vehicle: water) was 59 % of control; the T/C (endpoint: median tumor weight (est.), dose: 1.0 mg/kg/injection, schedule: Q07DX005 (ip), vehicle: acid diluted with saline) is 82 % of control; the T/C (endpoint: median tumor weight (est.), dose: 1.0 mg/kg/injection, schedule: Q07DX005 (ip), vehicle: water) is 112 % of control; the T/C (endpoint: median tumor weight (est.), dose: 2.0 mg/kg/injection, schedule: Q07DX005 (ip), vehicle: acid diluted with saline) is 65 % of control.

In the case of `O=S(=O)(N=N/C=C1\C=CC=CN1O)c1cccs1`, the T/C is, setting by setting: under setting [1], 76 % of control; under setting [2], 88 % of control.

As for `CCC(C(=O)O)C(=O)O.[NH-]CC1CCCC[N-]1.[Pt+2]`, under setting [3], the T/C was 51 % of control.

As to `CNC(=O)OCc1c(COC(=O)NC)c(-c2ccc(Cl)c(Cl)c2)n2c1Cc1ccccc1C2`, the T/C was 77 % of control (endpoint: median tumor weight change, dose: 125.0 mg/kg/injection, schedule: Q01DX001 (ip), vehicle: distilled water + Tween-80); 67 % of control (endpoint: median tumor weight change, dose: 250.0 mg/kg/injection, schedule: Q01DX001 (ip), vehicle: distilled water + Tween-80); -12 % of control (endpoint: median tumor weight change, dose: 500.0 mg/kg/injection, schedule: Q01DX001 (ip), vehicle: distilled water + Tween-80); -53 % of control (endpoint: median tumor weight change, dose: 1000.0 mg/kg/injection, schedule: Q01DX001 (ip), vehicle: distilled water + Tween-80); -71 % of control (endpoint: median tumor weight change, dose: 2000.0 mg/kg/injection, schedule: Q01DX001 (ip), vehicle: distilled water + Tween-80).

On to `O=C(Nc1ccc(C2=NCCN2)cc1)c1ccc(C(=O)Nc2ccc(C3=NCCN3)cc2)c(Cl)c1`, for which the T/C reads like this: (endpoint: mean tumor weight, dose: 6.25 mg/kg/injection, schedule: Q07DX004 (ip), vehicle: saline with Tween-80) 70 % of control; (endpoint: mean tumor weight, dose: 12.5 mg/kg/injection, schedule: Q07DX004 (ip), vehicle: saline with Tween-80) 77 % of control; (endpoint: mean tumor weight, dose: 25.0 mg/kg/injection, schedule: Q07DX004 (ip), vehicle: saline with Tween-80) 71 % of control.

Take `COC(C(=O)C(O)C(C)O)C1Cc2cc3cc(OC4CC(OC(C)=O)C(OC5CC(O)C(OC)C(C)O5)C(C)O4)cc(O)c3c(O)c2C(=O)C1OC1CC(OC2CC(OC3CC(C)(O)C(OC(=O)C(C)C)C(C)O3)C(O)C(C)O2)C(O)C(C)O1` (configuration not stated): the T/C (endpoint: median tumor weight (est.), dose: 0.5 mg/kg/injection, schedule: Q07DX005 (ip), vehicle: saline) is 76 % of control; the T/C (endpoint: median tumor weight (est.), dose: 1.0 mg/kg/injection, schedule: Q07DX005 (ip), vehicle: saline) was 30 % of control; the T/C (endpoint: median tumor weight (est.), dose: 2.0 mg/kg/injection, schedule: Q07DX005 (ip), vehicle: saline) is 34 % of control.

In the case of `O=C(Nc1ccccc1)c1c(O)[nH]c(=S)[nH]c1=O`, the T/C reads like this: (endpoint: median tumor weight change, dose: 56.0 mg/kg/injection, schedule: Q01DX001 (ip), vehicle: saline with Tween-80) 61 % of control; (endpoint: median tumor weight change, dose: 112.0 mg/kg/injection, schedule: Q01DX001 (ip), vehicle: saline with Tween-80) 80 % of control.

On to `Cc1c2c(c(O)c3c(O)cccc13)C(=O)C1(O)C(O)=C(C(=O)NCNc3ccc(C(N)=O)cn3)C(=O)C(N(C)C)C1C2` (configuration not stated), for which the T/C is 82 % of control (endpoint: median tumor weight change, dose: 15.62 mg/kg/injection, schedule: Q01DX001 (ip), vehicle: saline); 70 % of control (endpoint: median tumor weight change, dose: 31.25 mg/kg/injection, schedule: Q01DX001 (ip), vehicle: saline); 43 % of control (endpoint: median tumor weight change, dose: 62.5 mg/kg/injection, schedule: Q01DX001 (ip), vehicle: saline); 34 % of control under setting [3].

As for `CC[n+]1ccc(Nc2ccc(NC(=O)c3ccc(C(=O)Nc4ccc(Nc5cc[n+](CC)c(N)n5)cc4)cc3)cc2)nc1N`, the T/C (endpoint: median tumor weight (est.), dose: 6.25 mg/kg/injection, schedule: Q07DX005 (ip), vehicle: suspension in saline) was 257 % of control; the T/C under setting [4] was 77 % of control; the T/C under setting [5] is 45 % of control; the T/C (endpoint: median tumor weight (est.), dose: 100.0 mg/kg/injection, schedule: Q07DX005 (ip), vehicle: suspension in saline) was 41 % of control; the T/C under setting [6] was 20 % of control.

Turning to `Cc1c2ccccc2c(C)c2c1cc(C(=O)O)c1ccccc12`, the T/C (endpoint: median tumor weight change, dose: 50.0 mg/kg/injection, schedule: Q01DX001 (ip), vehicle: sodium bicarbonate) was 83 % of control; the T/C (endpoint: median tumor weight change, dose: 100.0 mg/kg/injection, schedule: Q01DX001 (ip), vehicle: sodium bicarbonate) was 82 % of control; the T/C (endpoint: median tumor weight change, dose: 200.0 mg/kg/injection, schedule: Q01DX001 (ip), vehicle: sodium bicarbonate) is 155 % of control; the T/C (endpoint: median tumor weight change, dose: 400.0 mg/kg/injection, schedule: Q01DX001 (ip), vehicle: sodium bicarbonate) was 153 % of control.

In the case of `CC12CC(C(=O)O)C3(O)CC(C)(C1)CC(C)(C2)C3` (configuration not stated) (tested in a mixture with another compound), the T/C (endpoint: median tumor weight (est.), dose: 12.5 mg/kg/injection, schedule: Q07DX005 (ip), vehicle: Klucel (hydroxypropylcellulose) (HPC)) is 93 % of control; the T/C (endpoint: median tumor weight (est.), dose: 25.0 mg/kg/injection, schedule: Q07DX005 (ip), vehicle: Klucel (hydroxypropylcellulose) (HPC)) is 78 % of control; the T/C (endpoint: median tumor weight (est.), dose: 50.0 mg/kg/injection, schedule: Q07DX005 (ip), vehicle: Klucel (hydroxypropylcellulose) (HPC)) is 56 % of control; the T/C (endpoint: median tumor weight (est.), dose: 200.0 mg/kg/injection, schedule: Q07DX005 (ip), vehicle: Klucel (hydroxypropylcellulose) (HPC)) was 87 % of control; the T/C (endpoint: median tumor weight (est.), dose: 400.0 mg/kg/injection, schedule: Q07DX005 (ip), vehicle: Klucel (hydroxypropylcellulose) (HPC)) is 71 % of control.

`O=c1[nH]cccc1O`: the T/C under setting [1] was 60 % of control and the T/C under setting [2] is 35 % of control.

Regarding `C=C(C)C12CC(C)C34OC(CCCCCCCCCCC)(OC1C3C1OC1(CO)C(O)C1(O)C(=O)C(C)=CC14C)O2` (configuration not stated), the T/C reads like this: (endpoint: median tumor weight (est.), dose: 100.0 micrograms/kg/injection, schedule: Q07DX005 (ip), vehicle: saline + alcohol) 58 % of control; (endpoint: median tumor weight (est.), dose: 200.0 micrograms/kg/injection, schedule: Q07DX005 (ip), vehicle: saline + alcohol) 71 % of control; (endpoint: median tumor weight (est.), dose: 400.0 micrograms/kg/injection, schedule: Q07DX005 (ip), vehicle: saline + alcohol) 49 % of control.

Regarding `COC(=Nc1ccccc1)SSC(C)C`, for the setting “endpoint: median tumor weight (est.), dose: 100.0 mg/kg/injection, schedule: Q07DX005 (ip), vehicle: saline with Tween-80”, the T/C is 43 % of control and 46 % of control.

Take `CN=C(N)N/N=C(\C)c1ccc2c(c1)Cc1ccccc1-2`: the T/C was 60 % of control under setting [1] and 55 % of control under setting [2].

With `Nc1nc(=S)c2ncn(C3CC(O)C(CO)O3)c2[nH]1` (configuration not stated), the T/C by setting is: (endpoint: median tumor weight (est.), dose: 10.0 mg/kg/injection, schedule: Q07DX005 (ip), vehicle: saline with Tween-80) 17 % of control and 37 % of control; (endpoint: median tumor weight (est.), dose: 12.5 mg/kg/injection, schedule: Q07DX005 (ip), vehicle: suspension in saline) 81 % of control; (endpoint: median tumor weight (est.), dose: 20.0 mg/kg/injection, schedule: Q07DX005 (ip), vehicle: saline with Tween-80) 9 % of control and 21 % of control; under setting [4], 101 % of control; (endpoint: median tumor weight (est.), dose: 40.0 mg/kg/injection, schedule: Q07DX005 (ip), vehicle: saline with Tween-80) 6 % of control and 7 % of control; under setting [5], 72 % of control. Besides, the T/C (endpoint: median tumor weight (est.), dose: 80.0 mg/kg/injection, schedule: Q07DX005 (ip), vehicle: saline with Tween-80) was 2 % of control and 5 % of control; the T/C under setting [6] is 62 % of control.

Consider `CN1c2c(nc(N)[nH]c2=O)NCC1CCNc1ccc(C(=O)NC(CCC(=O)O)C(=O)O)cc1` (configuration not stated), for which the T/C by setting is: (endpoint: mean tumor weight, dose: 25.0 mg/kg/injection, schedule: Q07DX008 (ip), vehicle: sodium bicarbonate) 119 % of control; (endpoint: mean tumor weight, dose: 50.0 mg/kg/injection, schedule: Q07DX008 (ip), vehicle: sodium bicarbonate) 77 % of control; (endpoint: mean tumor weight, dose: 100.0 mg/kg/injection, schedule: Q07DX008 (ip), vehicle: sodium bicarbonate) 72 % of control; (endpoint: median tumor weight (est.), dose: 12.5 mg/kg/injection, schedule: Q07DX005 (ip), vehicle: saline) 103 % of control; (endpoint: median tumor weight (est.), dose: 25.0 mg/kg/injection, schedule: Q07DX005 (ip), vehicle: saline) 95 % of control; (endpoint: median tumor weight (est.), dose: 800.0 mg/kg/injection, schedule: Q07DX005 (ip), vehicle: saline) 98 % of control.
